Literature values, collected in PubChem BioAssay AID1259409 (Chemical Carcinogenesis Research Information System (CCRIS), 2018).
Values joined by “and” are separate entries in the source; they are usually repeats but may differ in a detail not shown here. Equal values may be shown once.

Test system: rodent chemically induced tumor inhibition, incidence and multiplicity
Assay: CCRIS tumor inhibitor studies
Details: Dose [Inhibitor]: 0

N#C[Se]Cc1ccc(C[Se]C#N)cc1
tumour outcome (control, treated, inhibition, significance) (Carcinogen: 4(Methylnitrosamino)-1-(3-pyridyl)-1-butanone (NNK) (62339-61-1), 10 ppm as Se in diet, wks 6 to 32, study duration 26 wk, Route [Inhibitor]: Oral, Species: Mouse, Strain/Sex: A/J / Female, Target Tissue: Type of Lesion: Lung: Tumor, Dose [Carcinogen]: 3 umol once a wk for 8 wk beginning at wk 6 (total of 24 umol/mouse), study duration 26 wk): 90%, 20% (78% reduction), p<0.001 and 96%, 68% (30% reduction), p<0.01 | tumour outcome (control, treated, inhibition, significance) (Carcinogen: 4-(METHYLNITROSAMINO)-1-(3-PYRIDYL)-1-BUTANONE, 64091-91-4, 0.0005% IN DIET FOR 17 WK BEGINNING 1 WK PRIOR TO CARCINOGEN DOSE (STUDY DURATION: 17 WK), Route [Inhibitor]: ORAL, Species: MOUSE, Strain/Sex: STRAIN-A/FEMALE, Target Tissue: Type of Lesion: LUNG: ADENOMA, Dose [Carcinogen]: 10 UMOL IN 0.1 ML SALINE ONCE, Promoter: NONE USED): 100%, 100%, 0%, not significant | tumour outcome (control, treated, inhibition, significance) (Carcinogen: 4-(METHYLNITROSAMINO)-1-(3-PYRIDYL)-1-BUTANONE, 64091-91-4, 5 PPM IN DIET BEGINNING 1 WK PRIOR TO CARCINOGEN TREATMENT AND CONTINUING FOR 16 WK POST CARCINOGEN TREATMENT (STUDY, Route [Inhibitor]: ORAL, Species: MOUSE, Strain/Sex: STRAIN-A/FEMALE, Target Tissue: Type of Lesion: LUNG: ADENOMA, Dose [Carcinogen]: 10 UMOL IN 0.1 ML SALINE, Promoter: NONE USED): 100%, 100%, 0%, not significant | tumour outcome (control, treated, inhibition, significance) (Carcinogen: 4-(METHYLNITROSAMINO)-1-(3-PYRIDYL)-1-BUTANONE, 64091-91-4, 7.5 PPM IN DIET FOR 3 WK BEGINNING 1 WK PRIOR TO CARCINOGEN DOSE (STUDY DURATION: 18 WK), Route [Inhibitor]: ORAL, Species: MOUSE, Strain/Sex: STRAIN-A/FEMALE, Target Tissue: Type of Lesion: LUNG: TUMOR, Dose [Carcinogen]: 10 UMOL IN 0.1 ML SALINE ONCE, Promoter: NONE USED): 100%, 80%, 20%, not significant | tumour outcome (control, treated, inhibition, significance) (Carcinogen: 4-(METHYLNITROSAMINO)-1-(3-PYRIDYL)-1-BUTANONE, 64091-91-4, 7.5 PPM IN DIET FOR 15 WK BEGINNING 1 WK POST CARCINOGEN DOSE (STUDY DURATION: 18 WK), Route [Inhibitor]: ORAL, Species: MOUSE, Strain/Sex: STRAIN-A/FEMALE, Target Tissue: Type of Lesion: LUNG: TUMOR, Dose [Carcinogen]: 10 UMOL IN 0.1 ML SALINE ONCE, Promoter: NONE USED): 100%, 96%, 4%, not significant | tumour outcome (control, treated, inhibition, significance) (Carcinogen: 4-(METHYLNITROSAMINO)-1-(3-PYRIDYL)-1-BUTANONE, 64091-91-4, 10 PPM IN DIET BEGINNING 1 WK PRIOR TO CARCINOGEN TREATMENT AND CONTINUING FOR 16 WK POST CARCINOGEN TREATMENT (STUDY, Route [Inhibitor]: ORAL, Species: MOUSE, Strain/Sex: STRAIN-A/FEMALE, Target Tissue: Type of Lesion: LUNG: ADENOMA, Dose [Carcinogen]: 10 UMOL IN 0.1 ML SALINE, Promoter: NONE USED): 100%, 90%, 10%, not significant | tumour outcome (control, treated, inhibition, significance) (Carcinogen: 4-(METHYLNITROSAMINO)-1-(3-PYRIDYL)-1-BUTANONE, 64091-91-4, 15 PPM IN DIET BEGINNING 1 WK PRIOR TO CARCINOGEN TREATMENT AND CONTINUING FOR 16 WK POST CARCINOGEN TREATMENT (STUDY, Route [Inhibitor]: ORAL, Species: MOUSE, Strain/Sex: STRAIN-A/FEMALE, Target Tissue: Type of Lesion: LUNG: ADENOMA, Dose [Carcinogen]: 10 UMOL IN 0.1 ML SALINE, Promoter: NONE USED): 100%, 85%, 15%, not significant | tumour outcome (control, treated, inhibition, significance) (Carcinogen: 4-(METHYLNITROSAMINO)-1-(3-PYRIDYL)-1-BUTANONE, 64091-91-4, 15 PPM IN DIET FOR 3 WK BEGINNING 2 WK PRIOR TO CARCINOGEN DOSE (STUDY DURATION: 18 WK), Route [Inhibitor]: ORAL, Species: MOUSE, Strain/Sex: STRAIN-A/FEMALE, Target Tissue: Type of Lesion: LUNG: TUMOR, Dose [Carcinogen]: 10 UMOL IN 0.1 ML SALINE ONCE, Promoter: NONE USED): 100%, 80%, 20%, not significant | tumour outcome (control, treated, inhibition, significance) (Carcinogen: 4-(METHYLNITROSAMINO)-1-(3-PYRIDYL)-1-BUTANONE, 64091-91-4, 15 PPM IN DIET FOR 15 WK BEGINNING 1 WK POST CARCINOGEN DOSE (STUDY DURATION: 18 WK), Route [Inhibitor]: ORAL, Species: MOUSE, Strain/Sex: STRAIN-A/FEMALE, Target Tissue: Type of Lesion: LUNG: TUMOR, Dose [Carcinogen]: 10 UMOL IN 0.1 ML SALINE ONCE, Promoter: NONE USED): 100%, 96%, 4%, not significant | tumour outcome (control, treated, inhibition, significance) (Carcinogen: 7,12-DIMETHYLBENZ[A]ANTHRACENE, 57-97-6, 2.5 PPM (AS SELENIUM) IN DIET BEGINNING 2 WK PRIOR TO CARCINOGEN DOSE AND CONTINUING FOR DURATION OF STUDY (STUDY DUR, Route [Inhibitor]: ORAL, Species: RAT, Strain/Sex: SPRAGUE-DAWLEY/FEMALE, Target Tissue: Type of Lesion: MAMMARY GLAND: ADENOCARCINOMA, Dose [Carcinogen]: 10 MG ONCE AT 55 D OF AGE, Promoter: NONE USED): 88%, 72%, 18%, not significant | tumour outcome (control, treated, inhibition, significance) (Carcinogen: 7,12-DIMETHYLBENZ[A]ANTHRACENE, 57-97-6, 5 PPM (AS SELENIUM) IN DIET BEGINNING 1 WK POST CARCINOGEN DOSE AND CONTINUING FOR 25 WK (STUDY DURATION: 25 WK), Route [Inhibitor]: ORAL, Species: RAT, Strain/Sex: SPRAGUE-DAWLEY/FEMALE, Target Tissue: Type of Lesion: MAMMARY GLAND: ADENOCARCINOMA, Dose [Carcinogen]: 10 MG ONCE AT 55 D OF AGE, Promoter: NONE USED): 22/25 (88%), 17/25 (68%), 23%, not significant
